Experimental data published in patent US10463710B2, “Short synthetic peptide for the treatment and/or prophylaxis of autoimmune and inflammatory disorders” (MacKay Memorial Hospital, priority 2015, dated 2019).
Entries after “also recorded” stand apart in the source; their conditions may differ.

What was measured:
in vitro = assay type: cell-based, murine; conditions: mouse, Raw264.7 cell viability
[1] = tested on: Raw264.7 macrophage cells; assay: in vitro; assay type: cell-based, murine; conditions: Example 1 results
[2] = tested on: IMQ-induced psoriasis-like skin inflammation; assay: Mouse model of IMQ-induced psoriasis-like skin inflammation; assay type: in vivo, BALB/c mice; conditions: topical Clobetasol 0.02%
Description: All experimental procedures were approved by the Mackay Memorial Hospital Animal Care and Uses Committee and conducted according to national animal welfare regulations. Psoriasis-like skin inflammation was created by treating mouse skin with Imiquimod (IMQ) in accordance with the procedures described by van der Fits et al (J Immunol. (2009), 182, 5836-5845). Accordingly, each BALB/c mice (8 weeks old) received a daily topical dose of 62.5 mg of commercially available IMQ cream (5%) on the shaved back and the right ear for 6 consecutive days; whereas the control mice (normal group) were treated with a control cream. For treatment, 7-mer analogue was mixed with IMQ cream to a concentration 100 μM.
Keratinocyte proliferation was determined by 5-bromo-2′-deoxyuridine (BrdU) incorporation. BrdU (Sigma-Aldrich) was reconstituted in DMSO as a stock solution of 80 mM. 10 μl of BrdU mixed with 90 μl of PBS was intraperitoneally injected into each mouse for 24 hr prior to euthanasia. Back skin was fixed overnight in 4% paraformaldehyde and embedded in paraffin for immunohistochemistry.
In this example, the efficacy of the present synthetic peptides of Example 1 on IMQ-induced psoriasis-like skin inflammation was investigated. To this purpose, animals (8-week-old mice) were given a daily topical dose of IMQ cream on the shaved back for six consecutive days, so as to induce psoriasis-like skin inflammation and desquamation (FIG. 1; left panel).
Psoriasis is a disease resulted from abnormal keratinocyte proliferation, thus the effects of the present synthetic peptides on the proliferation of keratinocytes were also monitored in accordance with procedures described in the section of “Materials and Methods”. Results are illustrated in FIG. 2.

In the case of `CC(=O)N[C@@H](C)C(=O)N[C@@H](CC(C)C)C(=O)N[C@@H](Cc1ccc(O)cc1)C(=O)N[C@@H](CCCNC(=N)N)C(=O)N[C@H](C(=O)N[C@@H](CCCNC(=N)N)C(=O)N[C@@H](CO)C(N)=O)C(C)C` [7-mer Da, NH2-Ala-Leu-Tyr-Arg-Val-Arg-Ser-COOH], the viability at 24 h, 20 μM (in vitro) is reported as 52.9 ± 0.84% and the “bioactivity / inhibitory activity relative to 7-mer (in words)” value [1] is reported as “could sustain the inhibitory activity”.
For `CC[C@H](C)[C@H](NC(=O)[C@H](CC(=O)O)NC(C)=O)C(=O)N[C@@H](Cc1ccc(O)cc1)C(=O)N[C@@H](CCCNC(=N)N)C(=O)N[C@H](C(=O)N1CCC[C@H]1C(=O)N[C@@H](CO)C(N)=O)C(C)C` [7-mer IP, NH2-Asp-Ile-Tyr-Arg-Val-Pro-Ser-COOH], the viability at 24 h, 20 μM (in vitro) was 81.7 ± 4.5% and the “bioactivity / inhibitory activity relative to 7-mer (in words)” value [1] was “could sustain 7-mer bioactivity, only partly”.
With `CC(=O)N[C@@H](CC(=O)O)C(=O)N[C@@H](CC(C)C)C(=O)N[C@@H](Cc1ccc(O)cc1)C(=O)N[C@@H](CCCCN)C(=O)N[C@H](C(=O)N1CCC[C@H]1C(=O)N[C@@H](CO)C(N)=O)C(C)C` [7-mer KP, NH2-Asp-Leu-Tyr-Lys-Val-Pro-Ser-COOH] the viability at 24 h, 20 μM (in vitro) was 81.2 ± 3.43% and the “bioactivity / inhibitory activity relative to 7-mer (in words)” value [1] was “could sustain 7-mer bioactivity, only partly”.
For `CC(=O)N[C@@H](CC(=O)O)C(=O)N[C@@H](C)C(=O)N[C@@H](Cc1ccc(O)cc1)C(=O)N[C@@H](CCCNC(=N)N)C(=O)N[C@H](C(=O)N[C@@H](CCCNC(=N)N)C(=O)N[C@@H](CO)C(N)=O)C(C)C` [7-mer La, NH2-Asp-Ala-Tyr-Arg-Val-Arg-Ser-COOH], the viability at 24 h, 20 μM (in vitro) was 57.4 ± 1.71% and the “bioactivity / inhibitory activity relative to 7-mer (in words)” value [1] was “could sustain the inhibitory activity”.
With `CSCC[C@H](NC(=O)[C@H](CCCNC(=N)N)NC(=O)[C@H](Cc1ccc(O)cc1)NC(=O)[C@H](CC(C)C)NC(=O)[C@H](CC(=O)O)NC(C)=O)C(=O)N[C@@H](CCCCN)C(=O)N[C@@H](CO)C(N)=O` [7-mer MK, NH2-Asp-Leu-Tyr-Arg-Met-Lys-Ser-COOH] the viability at 24 h, 20 μM (in vitro) was 81.4 ± 0.64% and the “bioactivity / inhibitory activity relative to 7-mer (in words)” value [1] was “could sustain 7-mer bioactivity, only partly”.
With `CC(=O)N[C@@H](CC(N)=O)C(=O)N[C@H](C(=O)N[C@@H](Cc1ccc(O)cc1)C(=O)N[C@@H](CCCNC(=N)N)C(=O)N[C@H](C(=O)N[C@@H](CCCNC(=N)N)C(=O)N[C@@H](CO)C(N)=O)C(C)C)C(C)C` [7-mer NV, NH2-Asn-Val-Tyr-Arg-Val-Arg-Ser-COOH] the viability at 24 h, 20 μM (in vitro) was 74.8 ± 1.73% and the “bioactivity / inhibitory activity relative to 7-mer (in words)” value [1] was “could sustain 7-mer bioactivity, only partly”.
For `CC(=O)N[C@@H](CC(=O)O)C(=O)N[C@@H](CC(C)C)C(=O)N[C@@H](Cc1ccc(O)cc1)C(=O)N[C@@H](CCCNC(=N)N)C(=O)N[C@@H](CCC(N)=O)C(=O)N[C@@H](CCCCN)C(=O)N[C@@H](CO)C(N)=O` [7-mer QK, NH2-Asp-Leu-Tyr-Arg-Gln-Lys-Ser-COOH], the viability at 24 h, 20 μM (in vitro) was 77.7 ± 3.02% and the “bioactivity / inhibitory activity relative to 7-mer (in words)” value [1] was “could sustain 7-mer bioactivity, only partly”.
In the case of `CC(=O)N[C@@H](CC(=O)O)C(=O)N[C@H](C(=O)N[C@@H](Cc1ccccc1)C(=O)N[C@@H](CCCNC(=N)N)C(=O)N[C@H](C(=O)N[C@@H](CCCNC(=N)N)C(=O)N[C@H](C(N)=O)[C@@H](C)O)C(C)C)C(C)C` [7-mer VFT, NH2-Asp-Val-Phe-Arg-Val-Arg-Thr-COOH], the viability at 24 h, 20 μM (in vitro) is reported as 71.1 ± 2.48% and the “bioactivity / inhibitory activity relative to 7-mer (in words)” value [1] is reported as “could sustain 7-mer bioactivity, only partly; also recorded: relatively the same bioactivity that is similar to the 7-mer”.
With `CC[C@H](C)[C@H](NC(=O)[C@H](CCCNC(=N)N)NC(=O)[C@H](Cc1c[nH]c2ccccc12)NC(=O)[C@H](CC(C)C)NC(=O)[C@H](CC(=O)O)NC(C)=O)C(=O)N[C@@H](CCCNC(=N)N)C(=O)N[C@@H](CO)C(N)=O` [7-mer WI, NH2-Asp-Leu-Trp-Arg-Ile-Arg-Ser-COOH] the viability at 24 h, 20 μM (in vitro) was 77.9 ± 2.87% and the “bioactivity / inhibitory activity relative to 7-mer (in words)” value [1] was “could sustain 7-mer bioactivity, only partly”.
For `C[C@H]1C[C@H]2[C@@H]3CCC4=CC(=O)C=C[C@]4(C)[C@@]3(F)[C@@H](O)C[C@]2(C)[C@@]1(O)C(=O)CCl` [Clobetasol, reference compound], the desquamation formation ([2]; FIG. 1) was “ameliorated desquamation formation” and the skin atrophy ([2]; entire back of test animals) was “caused skin atrophy”.
